According to US11293927B2, “Screening methods for PARP modulators” (Ribon Therapeutics, Inc., priority 2018, dated 2022):

Target: T1, PARP15 (Homo sapiens, UniProt Q460N3)
T1 construct: made in house; host or cells: Sf9
T1 sequence (Q460N3 481-678): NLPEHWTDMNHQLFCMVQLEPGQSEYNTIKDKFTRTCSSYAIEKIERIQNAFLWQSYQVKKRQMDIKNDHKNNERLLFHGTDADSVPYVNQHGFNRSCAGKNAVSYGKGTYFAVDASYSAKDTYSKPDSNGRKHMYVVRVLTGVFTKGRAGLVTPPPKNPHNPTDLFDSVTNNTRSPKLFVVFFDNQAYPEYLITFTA
Assay: In vitro TR-FRET probe displacement assay (Probe C), PARP15
Type: binding
Conditions: TR-FRET displacement of Probe C, PARP15 residues 481-678
Procedure: A portion of PARP15 (residues 481 to 678 of NP_689828.1 (SEQ ID NO: 5), GenBank Accession No. NM_152615) was overexpressed in Sf9 cells. An N-terminal fusion tag, […] (SEQ ID NO: 10), was used to purify the protein from cell lysates. The fusion tag was left on the protein for use in the probe displacement assay.
Displacement of a Probe C binding to monoPARP active sites was measured using a time-resolved fluorescence resonance energy transfer (TR-FRET) assay. 20 nL of a dose response curve of each test compound was spotted in black 384-well polystyrene proxiplates (Perkin Elmer) using a Mosquito (TTP Labtech). Reactions were performed in a 8 μL volume by adding 6 μL of the monoPARP and Probe C in assay buffer (20 mM HEPES pH=8, 100 mM NaCl, 0.1% bovine serum albumin, 2 mM DTT and 0.002% Tween20), incubating with test compound at 25° C. for 30 min, then adding 2 μL of ULight-streptavidin and LANCE Eu-W 1024 Anti-6×His (Perkin Elmer). Binding reactions were equilibrated at 25° C. for an additional 30 min, then read on an Envision platereader equipped with a LANCE/DELFIA top mirror (Perkin Elmer) using excitation of 320 nm and emission of 615 nm and […] with a 90 μs delay. The ratio of the 665/615 nm emission were calculated for each well to determine the amount of complex of monoPARP and Probe C in each well. […]

- IC50: 60 nM
SMILES: O=c1[nH]ncc(N2Cc3ccc(OC4CCNCC4)cc3C2)c1C(F)(F)F [Compound A, 5-[5-(Piperidin-4-yloxy)-2,3-dihydro-1H-isoindol-2-yl]-4-(trifluoromethyl)-2,3-dihydropyridazin-3-one]
